Data reported in PubChem BioAssay AID222 (DTP/NCI, 2004).
Where “and” joins values, the source holds several entries; their conditions need not be identical. Equal values may be shown once. Toxic doses and inconclusive results are not listed. The calls were made as follows: active = survival T/C of 150% or more; inactive = T/C below 125% in these data.

System: C57BL/6 mice, intracerebral ependymoblastoma, median survival T/C
Experiment: NCI In Vivo Anticancer Drug Screen. Data for tumor model Ependymoblastoma (intracerebral) in C57BL/6 mice
Settings: endpoint: median survival time, higher = longer survival
Experimental: The antitumor activity of compounds was measured in mice bearing transplantable tumors. Survival or tumor size were measured and the results are expressed as the measurement made in the treated group (T) divided by the measurement made in the vehicle treated control group (C). The tumor model used in this assay is Ependymoblastoma (intracerebral) in C57BL/6 mice

[1] = dose: 64.0 mg/kg/injection, schedule: Q01DX001 (oral), vehicle: saline
[2] = dose: 128.0 mg/kg/injection, schedule: Q01DX001 (oral), vehicle: saline
[3] = dose: 256.0 mg/kg/injection, schedule: Q01DX001 (oral), vehicle: saline
[4] = dose: 512.0 mg/kg/injection, schedule: Q01DX001 (oral), vehicle: saline
[5] = dose: 1024.0 mg/kg/injection, schedule: Q01DX001 (oral), vehicle: saline

Measured: T/C

O=CC(NC(=O)N(CCCl)N=O)C(O)C(O)C(O)CO (stereo not given)
inactive: dose: 0.12 mg/kg/injection, schedule: Q01DX005 (ip), vehicle: Klucel (hydroxypropylcellulose) (HPC) 95 % of control | dose: 0.12 mg/kg/injection, schedule: Q01DX005 (ip), vehicle: saline 96 % of control and 104 % of control | dose: 0.13 mg/kg/injection, schedule: Q01DX005 (ip), vehicle: Klucel (hydroxypropylcellulose) (HPC) 88 % of control | dose: 0.13 mg/kg/injection, schedule: Q01DX005 (ip), vehicle: saline 89 % of control and 105 % of control | dose: 0.25 mg/kg/injection, schedule: Q01DX005 (ip), vehicle: Klucel (hydroxypropylcellulose) (HPC) 96 % of control and 123 % of control | dose: 0.5 mg/kg/injection, schedule: Q01DX005 (ip), vehicle: Klucel (hydroxypropylcellulose) (HPC) 97 % of control and 99 % of control | dose: 1.0 mg/kg/injection, schedule: Q01DX001 (ip), vehicle: Klucel (hydroxypropylcellulose) (HPC) 96 % of control | dose: 2.0 mg/kg/injection, schedule: Q01DX001 (ip), vehicle: Klucel (hydroxypropylcellulose) (HPC) 100 % of control | dose: 4.0 mg/kg/injection, schedule: Q01DX001 (ip), vehicle: Klucel (hydroxypropylcellulose) (HPC) 97 % of control | dose: 8.0 mg/kg/injection, schedule: Q01DX001 (ip), vehicle: Klucel (hydroxypropylcellulose) (HPC) 96 % of control | dose: 16.0 mg/kg/injection, schedule: Q01DX001 (ip), vehicle: Klucel (hydroxypropylcellulose) (HPC) 114 % of control | dose: 32.0 mg/kg/injection, schedule: Q01DX005 (oral), vehicle: saline 108 % of control | [1] 89 % of control | dose: 64.0 mg/kg/injection, schedule: Q01DX005 (oral), vehicle: saline 89 % of control | [2] 98 % of control | [3] 99 % of control | [4] 95 % of control | [5] 99 % of control

CCOC(=O)C(CC(C)C)NC(=O)C(Cc1ccc(N(CCCl)CCCl)cc1)NC(C)=O (stereo not given)
inactive: dose: 1.0 mg/kg/injection, schedule: Q01DX005 (ip), vehicle: Klucel (hydroxypropylcellulose) (HPC) 103 % of control | dose: 2.0 mg/kg/injection, schedule: Q01DX005 (ip), vehicle: Klucel (hydroxypropylcellulose) (HPC) 94 % of control and 101 % of control | dose: 4.0 mg/kg/injection, schedule: Q01DX005 (ip), vehicle: saline with Tween-80 96 % of control and 109 % of control | dose: 8.0 mg/kg/injection, schedule: Q01DX005 (ip), vehicle: saline with Tween-80 110 % of control and 119 % of control | dose: 16.0 mg/kg/injection, schedule: Q01DX005 (ip), vehicle: saline with Tween-80 107 % of control | dose: 16.0 mg/kg/injection, schedule: Q#A X002 (ip), vehicle: Klucel (hydroxypropylcellulose) (HPC) 110 % of control | dose: 32.0 mg/kg/injection, schedule: Q01DX001 (ip), vehicle: Klucel (hydroxypropylcellulose) (HPC) 100 % of control | dose: 32.0 mg/kg/injection, schedule: Q01DX005 (ip), vehicle: saline with Tween-80 97 % of control and 116 % of control | dose: 32.0 mg/kg/injection, schedule: Q#A X002 (ip), vehicle: Klucel (hydroxypropylcellulose) (HPC) 96 % of control | dose: 64.0 mg/kg/injection, schedule: Q01DX001 (ip), vehicle: Klucel (hydroxypropylcellulose) (HPC) 97 % of control and 103 % of control | dose: 64.0 mg/kg/injection, schedule: Q01DX001 (oral), vehicle: Klucel (hydroxypropylcellulose) (HPC) 99 % of control and 113 % of control | dose: 64.0 mg/kg/injection, schedule: Q01DX005 (ip), vehicle: saline with Tween-80 91 % of control | dose: 64.0 mg/kg/injection, schedule: Q#A X002 (ip), vehicle: Klucel (hydroxypropylcellulose) (HPC) 94 % of control | dose: 128.0 mg/kg/injection, schedule: Q01DX001 (ip), vehicle: Klucel (hydroxypropylcellulose) (HPC) 94 % of control and 115 % of control | dose: 128.0 mg/kg/injection, schedule: Q01DX001 (oral), vehicle: Klucel (hydroxypropylcellulose) (HPC) 99 % of control and 110 % of control | dose: 128.0 mg/kg/injection, schedule: Q#A X002 (ip), vehicle: Klucel (hydroxypropylcellulose) (HPC) 99 % of control | dose: 256.0 mg/kg/injection, schedule: Q01DX001 (ip), vehicle: Klucel (hydroxypropylcellulose) (HPC) 91 % of control and 98 % of control | dose: 256.0 mg/kg/injection, schedule: Q01DX001 (oral), vehicle: Klucel (hydroxypropylcellulose) (HPC) 101 % of control and 110 % of control | dose: 512.0 mg/kg/injection, schedule: Q01DX001 (ip), vehicle: Klucel (hydroxypropylcellulose) (HPC) 86 % of control | dose: 512.0 mg/kg/injection, schedule: Q01DX001 (oral), vehicle: Klucel (hydroxypropylcellulose) (HPC) 104 % of control and 114 % of control | dose: 1024.0 mg/kg/injection, schedule: Q01DX001 (oral), vehicle: Klucel (hydroxypropylcellulose) (HPC) 100 % of control and 109 % of control

COc1cc2cc3c4cc(OC)c(OC)cc4cc[n+]3c(C)c2cc1OC (tested in a mixture with another compound)
inactive: dose: 8.0 mg/kg/injection, schedule: Q01DX001 (ip), vehicle: saline 98 % of control | dose: 16.0 mg/kg/injection, schedule: Q01DX001 (ip), vehicle: saline 91 % of control | dose: 16.0 mg/kg/injection, schedule: Q#A X002 (ip), vehicle: saline 94 % of control | dose: 32.0 mg/kg/injection, schedule: Q01DX001 (ip), vehicle: saline 90 % of control | dose: 32.0 mg/kg/injection, schedule: Q01DX005 (ip), vehicle: Klucel (hydroxypropylcellulose) (HPC) 89 % of control | dose: 32.0 mg/kg/injection, schedule: Q#A X002 (ip), vehicle: saline 97 % of control and 105 % of control | [1] 100 % of control and 104 % of control | dose: 64.0 mg/kg/injection, schedule: Q01DX005 (ip), vehicle: Klucel (hydroxypropylcellulose) (HPC) 103 % of control and 107 % of control | dose: 64.0 mg/kg/injection, schedule: Q#A X002 (ip), vehicle: saline 111 % of control | [2] 100 % of control and 103 % of control | dose: 128.0 mg/kg/injection, schedule: Q01DX005 (ip), vehicle: Klucel (hydroxypropylcellulose) (HPC) 118 % of control and 121 % of control | dose: 128.0 mg/kg/injection, schedule: Q#A X002 (ip), vehicle: saline 103 % of control and 106 % of control | dose: 256.0 mg/kg/injection, schedule: Q01DX001 (ip), vehicle: saline 87 % of control | [3] 88 % of control and 103 % of control | dose: 256.0 mg/kg/injection, schedule: Q01DX005 (ip), vehicle: Klucel (hydroxypropylcellulose) (HPC) 118 % of control | dose: 256.0 mg/kg/injection, schedule: Q#A X002 (ip), vehicle: saline 87 % of control and 98 % of control | [4] 100 % of control and 102 % of control | [5] 100 % of control and 107 % of control

O=C1NC(=O)C2(CCc3ccc(N(CCCl)CCCl)cc32)N1 (stereo not given)
inactive: dose: 0.75 mg/kg/injection, schedule: Q01DX009 (ip), vehicle: Klucel (hydroxypropylcellulose) (HPC) 93 % of control | dose: 1.5 mg/kg/injection, schedule: Q01DX009 (ip), vehicle: Klucel (hydroxypropylcellulose) (HPC) 101 % of control | dose: 3.0 mg/kg/injection, schedule: Q01DX009 (ip), vehicle: Klucel (hydroxypropylcellulose) (HPC) 115 % of control | dose: 6.0 mg/kg/injection, schedule: Q01DX009 (ip), vehicle: Klucel (hydroxypropylcellulose) (HPC) 98 % of control | dose: 6.25 mg/kg/injection, schedule: Q01DX005 (ip), vehicle: Klucel (hydroxypropylcellulose) (HPC) 114 % of control | dose: 12.0 mg/kg/injection, schedule: Q01DX009 (ip), vehicle: Klucel (hydroxypropylcellulose) (HPC) 91 % of control | dose: 12.5 mg/kg/injection, schedule: Q01DX005 (ip), vehicle: Klucel (hydroxypropylcellulose) (HPC) 115 % of control | dose: 25.0 mg/kg/injection, schedule: Q01DX005 (ip), vehicle: Klucel (hydroxypropylcellulose) (HPC) 102 % of control
